Like-named read-outs stand apart in the source and are kept apart here. Each block holds one molecule with its values, some of them ahead of it.
Tests used:
HepG2 cells = test: HepG2 cytotoxicity counter-screen; conditions: cytotoxic activity against HepG2 cells
[1] = system: P. falciparum male gametocytes; test: P. falciparum Dual Gamete Formation Assay (PfDGFA), male readout (exflagellation); format: cell-based, Plasmodium falciparum NF54; conditions: for Selectivity Ratio M: HepG2 Tox50 versus male IC50; for IC50: PfDGFA, 24 h incubation with gametocytes before induction, exflagellation readout, read-out: Male IC50; for HitlevelM: number of replicates with >50% inhibition in the male readout
In short: (§1)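 Day-14 NF54 gametocytes were incubated with compound for 24 h at 37°C under 1% O2/3% CO2/96% N2. Gametogenesis was triggered with ookinete medium (0.1 μM xanthurenic acid) plus Cy3-anti-Pfs25, and exflagellation was imaged by brightfield after cooling to 4°C then 28°C. Females were imaged by Pfs25 fluorescence 24 h later at 28°C.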

[2] = system: P. falciparum female gametocytes; test: P. falciparum Dual Gamete Formation Assay (PfDGFA), female readout (Pfs25-positive female gametes); format: cell-based, Plasmodium falciparum NF54; conditions: for Selectivity ratio F: HepG2 Tox50 versus female IC50; for IC50: PfDGFA, 24 h incubation with gametocytes before induction, female gamete readout, read-out: Female IC50; for HitlevelF: number of replicates with >50% inhibition in the female readout
In short: as §1

[3] = 2µM, 24h preincubation with gametocytes, average of replicates
[4] = 2µM, 24h preincubation with gametocytes, replicate R1
[5] = 2µM, 24h preincubation with gametocytes, replicate R3
[6] = 2µM, 24h preincubation with gametocytes, replicate R4
[7] = PfDGFA at 2µM, 24h preincubation with gametocytes, average of replicates
[8] = PfDGFA at 2µM, 24h preincubation with gametocytes, replicate R1
[9] = PfDGFA at 2µM, 24h preincubation with gametocytes, replicate R3
[10] = PfDGFA at 2µM, 24h preincubation with gametocytes, replicate R4

SMILES: O=C(O)C(=O)O.Oc1c(CN2CCC(Cc3ccccc3)CC2)cc(Cl)c2cccnc12 [TCMDC-124594]
- Tox50 (HepG2 cells): 4.17 µM
- Average inhibition male (%) [1, 3]: 92.4%
- % inhibition male (individual replicates) R1 [1, 4]: 97.5%
- % inhibition male (individual replicates) R3 [1, 5]: 93.3%
- % inhibition male (individual replicates) R4 [1, 6]: 86.9%
- Selectivity Ratio M [1]: 2.09
- IC50 [1]: 2000 nM
- Average inhibition female (%) [2, 3]: 49.8%
- % inhibition female (individual replicates) R1 [2, 4]: 37.8%
- % inhibition female (individual replicates) R3 [2, 5]: 58.8%
- % inhibition female (individual replicates) R4 [2, 6]: 51.4%
- Selectivity ratio F [2]: 3.66
- IC50 [2]: 1140 nM

SMILES: O=C(c1ccc([N+](=O)[O-])o1)N1CCC(Cc2ccc(C(F)(F)F)cc2)CC1 [TCMDC-124805]
- Tox50 (HepG2 cells): 28.45 µM
- Selectivity Ratio M [1]: 70.69
- inhibition at 2 µM ([1]; Plasmodium falciparum, 2µM, 24h preincubation with gametocytes, average of replicates, read-out: Average inhibition male (%)): 101%
- inhibition at 2 µM ([1]; Plasmodium falciparum, 2µM, 24h preincubation with gametocytes, replicate R1, read-out: % inhibition male (individual replicates) R1): 98.9%
- inhibition at 2 µM ([1]; Plasmodium falciparum, 2µM, 24h preincubation with gametocytes, replicate R2, read-out: % inhibition male (individual replicates) R2): 100%
- inhibition at 2 µM ([1]; Plasmodium falciparum, 2µM, 24h preincubation with gametocytes, replicate R3, read-out: % inhibition male (individual replicates) R3): 102%
- inhibition at 2 µM ([1]; Plasmodium falciparum, 2µM, 24h preincubation with gametocytes, replicate R4, read-out: % inhibition male (individual replicates) R4): 102%
- IC50 ([1]; Plasmodium falciparum): 400 nM
- Selectivity ratio F [2]: 64.48
- inhibition at 2 µM ([2]; Plasmodium falciparum, 2µM, 24h preincubation with gametocytes, average of replicates, read-out: Average inhibition female (%)): 55.8%
- inhibition at 2 µM ([2]; Plasmodium falciparum, 2µM, 24h preincubation with gametocytes, replicate R1, read-out: % inhibition female (individual replicates) R1): 35.5%
- inhibition at 2 µM ([2]; Plasmodium falciparum, 2µM, 24h preincubation with gametocytes, replicate R2, read-out: % inhibition female (individual replicates) R2): 62.7%
- inhibition at 2 µM ([2]; Plasmodium falciparum, 2µM, 24h preincubation with gametocytes, replicate R3, read-out: % inhibition female (individual replicates) R3): 38.2%
- inhibition at 2 µM ([2]; Plasmodium falciparum, 2µM, 24h preincubation with gametocytes, replicate R4, read-out: % inhibition female (individual replicates) R4): 86.7%
- IC50 ([2]; Plasmodium falciparum): 440 nM

SMILES: Cc1ccccc1OCC(O)CNC1CCC(NCC(O)COc2ccccc2C)CC1 (stereo not drawn) [TCMDC-125142]
- Tox50 (HepG2 cells): 5.33 µM
- Selectivity Ratio M [1]: 2.74
- Average inhibition male (%) [1, 7]: 76.7%
- % inhibition male (individual replicates) R1 [1, 8]: 73.4%
- % inhibition male (individual replicates) R3 [1, 9]: 61.7%
- % inhibition male (individual replicates) R4 [1, 10]: 90.9%
- IC50 [1]: 1940 nM
- HitlevelM ([1]; 2µM): 4
- Selectivity ratio F [2]: 3.94
- Average inhibition female (%) [2, 7]: 34.1%
- % inhibition female (individual replicates) R1 [2, 8]: 36.4%
- % inhibition female (individual replicates) R3 [2, 9]: 18.2%
- % inhibition female (individual replicates) R4 [2, 10]: 27.5%
- IC50 [2]: 1350 nM
- HitlevelF ([2]; 2µM): 1

SMILES: Cc1ccc(-n2c(Sc3ncnc4sccc34)nnc2N2CCCC2)cc1 [TCMDC-125247]
- Tox50 (HepG2 cells): 73.14 µM
- Selectivity Ratio M [1]: 192.28
- inhibition at 2 µM ([1]; Plasmodium falciparum, PfDGFA at 2µM, 24h preincubation with gametocytes, average of replicates, read-out: Average inhibition male (%)): 74.6%
- inhibition at 2 µM ([1]; Plasmodium falciparum, PfDGFA at 2µM, 24h preincubation with gametocytes, replicate R1, read-out: % inhibition male (individual replicates) R1): 86.9%
- inhibition at 2 µM ([1]; Plasmodium falciparum, PfDGFA at 2µM, 24h preincubation with gametocytes, replicate R2, read-out: % inhibition male (individual replicates) R2): 67.1%
- inhibition at 2 µM ([1]; Plasmodium falciparum, PfDGFA at 2µM, 24h preincubation with gametocytes, replicate R3, read-out: % inhibition male (individual replicates) R3): 80.2%
- inhibition at 2 µM ([1]; Plasmodium falciparum, PfDGFA at 2µM, 24h preincubation with gametocytes, replicate R4, read-out: % inhibition male (individual replicates) R4): 64.2%
- IC50 ([1]; Plasmodium falciparum): 380 nM
- HitlevelM ([1]; 2µM): 4
- Selectivity ratio F [2]: 296.87
- inhibition at 2 µM ([2]; Plasmodium falciparum, PfDGFA at 2µM, 24h preincubation with gametocytes, average of replicates, read-out: Average inhibition female (%)): 63.5%
- inhibition at 2 µM ([2]; Plasmodium falciparum, PfDGFA at 2µM, 24h preincubation with gametocytes, replicate R1, read-out: % inhibition female (individual replicates) R1): 56.4%
- inhibition at 2 µM ([2]; Plasmodium falciparum, PfDGFA at 2µM, 24h preincubation with gametocytes, replicate R2, read-out: % inhibition female (individual replicates) R2): 85.8%
- inhibition at 2 µM ([2]; Plasmodium falciparum, PfDGFA at 2µM, 24h preincubation with gametocytes, replicate R3, read-out: % inhibition female (individual replicates) R3): 26.4%
- inhibition at 2 µM ([2]; Plasmodium falciparum, PfDGFA at 2µM, 24h preincubation with gametocytes, replicate R4, read-out: % inhibition female (individual replicates) R4): 85.4%
- IC50 ([2]; Plasmodium falciparum): 250 nM
- HitlevelF ([2]; 2µM): 3

SMILES: CCC1CN2CCc3cc(OC)c(OC)cc3C2CC1CC1NCCc2cc(OC)c(OC)cc21.Cl (stereo not drawn) [TCMDC-125849]
- Tox50 (HepG2 cells): 27.47 µM
- HitlevelM ([1]; 2µM, 24h preincubation): 2
- inhibition at 2 µM ([1]; Plasmodium falciparum, 2µM, 24h preincubation with gametocytes prior to induction of gametogenesis, average of replicates, read-out: Average inhibition male (%)): 47.7%
- inhibition at 2 µM ([1]; Plasmodium falciparum, 2µM, 24h preincubation with gametocytes prior to induction of gametogenesis, replicate R1, read-out: % inhibition male (individual replicates) R1): 38.6%
- inhibition at 2 µM ([1]; Plasmodium falciparum, 2µM, 24h preincubation with gametocytes prior to induction of gametogenesis, replicate R2, read-out: % inhibition male (individual replicates) R2): 27.6%
- inhibition at 2 µM ([1]; Plasmodium falciparum, 2µM, 24h preincubation with gametocytes prior to induction of gametogenesis, replicate R3, read-out: % inhibition male (individual replicates) R3): 59.3%
- inhibition at 2 µM ([1]; Plasmodium falciparum, 2µM, 24h preincubation with gametocytes prior to induction of gametogenesis, replicate R4, read-out: % inhibition male (individual replicates) R4): 65.1%
- IC50 ([1]; Plasmodium falciparum): 3530 nM
- HitlevelF ([2]; 2µM, 24h preincubation): 4
- times more potent against females than males ([2]; PfDGFA female versus male gametocytes): 4.7
- inhibition at 2 µM ([2]; Plasmodium falciparum, 2µM, 24h preincubation with gametocytes prior to induction of gametogenesis, average of replicates, read-out: Average inhibition female (%)): 93.3%
- inhibition at 2 µM ([2]; Plasmodium falciparum, 2µM, 24h preincubation with gametocytes prior to induction of gametogenesis, replicate R1, read-out: % inhibition female (individual replicates) R1): 91%
- inhibition at 2 µM ([2]; Plasmodium falciparum, 2µM, 24h preincubation with gametocytes prior to induction of gametogenesis, replicate R2, read-out: % inhibition female (individual replicates) R2): 79%
- inhibition at 2 µM ([2]; Plasmodium falciparum, 2µM, 24h preincubation with gametocytes prior to induction of gametogenesis, replicate R3, read-out: % inhibition female (individual replicates) R3): 103%
- inhibition at 2 µM ([2]; Plasmodium falciparum, 2µM, 24h preincubation with gametocytes prior to induction of gametogenesis, replicate R4, read-out: % inhibition female (individual replicates) R4): 100%
- IC50 ([2]; Plasmodium falciparum): 750 nM

Continued, in another order:

- IC50 [1]: 1310 nM
- IC50 [2]: 4430 nM
SMILES: CCCC(N)C(=O)NC1CCN(c2c(F)c(N)c3c(=O)c(C(=O)O)cn4c3c2Oc2ccccc2-4)C1.Cl (stereo not drawn) [TCMDC-125701]
- Tox50 (HepG2 cells): 2.99 µM
- Average inhibition male (%) [1, 3]: 89.8%
- % inhibition male (individual replicates) R1 [1, 4]: 87.0%
- % inhibition male (individual replicates) R3 [1, 5]: 88.1%
- % inhibition male (individual replicates) R4 [1, 6]: 95.7%
- Selectivity Ratio M [1]: 2.29
- Average inhibition female (%) [2, 3]: 53.0%
- % inhibition female (individual replicates) R1 [2, 4]: 43.9%
- % inhibition female (individual replicates) R3 [2, 5]: 47.1%
- % inhibition female (individual replicates) R4 [2, 6]: 70.9%
- Selectivity ratio F [2]: 0.68

- IC50 [1]: 500 nM
- IC50 [2]: 480 nM
SMILES: S=C(NN=Cc1ccccn1)NC1CC2C=CC1C2 (stereo not drawn) [TCMDC-125752]
- Tox50 (HepG2 cells): 0.14 µM
- Average inhibition male (%) [1, 3]: 101.0%
- % inhibition male (individual replicates) R1 [1, 4]: 99.9%
- % inhibition male (individual replicates) R3 [1, 5]: 101.6%
- % inhibition male (individual replicates) R4 [1, 6]: 102.9%
- Selectivity Ratio M [1]: 0.29
- Average inhibition female (%) [2, 3]: 59.8%
- % inhibition female (individual replicates) R1 [2, 4]: 34.4%
- % inhibition female (individual replicates) R3 [2, 5]: 45.5%
- % inhibition female (individual replicates) R4 [2, 6]: 74.2%
- Selectivity ratio F [2]: 0.3

- IC50 [1]: 1870 nM
- IC50 [2]: 5300 nM
SMILES: COc1ccc(CCNCCCCCCNCCc2ccc(Cl)c3ccccc23)cc1OC.Cl [TCMDC-131270]
- Tox50 (HepG2 cells): 4.03 µM
- Average inhibition male (%) [1, 3]: 92.0%
- % inhibition male (individual replicates) R1 [1, 4]: 90.1%
- % inhibition male (individual replicates) R4 [1, 6]: 89.1%
- Selectivity Ratio M [1]: 2.16
- Average inhibition female (%) [2, 3]: 44.5%
- % inhibition female (individual replicates) R1 [2, 4]: 48.1%
- % inhibition female (individual replicates) R3 [2, 5]: 32.3%
- % inhibition female (individual replicates) R4 [2, 6]: 35.6%
- Selectivity ratio F [2]: 0.76
